Data on 1 compound can be found in ChEMBL document CHEMBL6092171, “Discovery of Propionic Acid Derivatives with a 5-THIQ Core as Potent and Orally Bioavailable Keap1-Nrf2 Protein-Protein Interaction Inhibitors for Acute Kidney Injury” (J Med Chem, 2024).

Common to all, as to type: ADME, organism-based
Data set [1] in a line: Volume of distribution in Sprague-Dawley rat at 5 mg/kg, po measured upto 24 hrs by LC-MS/MS analysis. The note with it: in vivo.
A short description of data set [2]: MRT (0 to infinity) in Sprague-Dawley rat at 1 mg/kg, iv measured upto 24 hrs by LC-MS/MS analysis. The following applies: in vivo.
Data set [3] can be described thus: MRT (0 to t) in Sprague-Dawley rat at 5 mg/kg, po measured upto 24 hrs by LC-MS/MS analysis. The following applies: in vivo.
The nature of data set [4]: Cmax in Sprague-Dawley rat at 1 mg/kg, iv measured upto 24 hrs by LC-MS/MS analysis. The following applies: in vivo.
The nature of data set [5]: AUC (0 to t) in Sprague-Dawley rat at 5 mg/kg, po measured upto 24 hrs by LC-MS/MS analysis. The note with it: in vivo.
The nature of data set [6]: Half life in Sprague-Dawley rat at 5 mg/kg, po measured upto 24 hrs by LC-MS/MS analysis. The following applies: in vivo.
A short description of data set [7]: Apparent clearance during terminal phase in Sprague-Dawley rat at 5 mg/kg, po measured upto 24 hrs by LC-MS/MS analysis. The following applies: in vivo.
A short description of data set [8]: MRT (0 to infinity) in Sprague-Dawley rat at 5 mg/kg, po measured upto 24 hrs by LC-MS/MS analysis. The following applies: in vivo.
Data set [9] can be described thus: Half life in Sprague-Dawley rat at 1 mg/kg, iv measured upto 24 hrs by LC-MS/MS analysis. The following applies: in vivo.
Data set [10] can be described thus: AUC (0 to infinity) in Sprague-Dawley rat at 1 mg/kg, iv measured upto 24 hrs by LC-MS/MS analysis. The following applies: in vivo.
A short description of data set [11]: Oral bioavailability in Sprague-Dawley rat at 5 mg/kg measured upto 24 hrs by LC-MS/MS analysis. The note with it: in vivo.
Data set [12] is described as follows: Cmax in Sprague-Dawley rat at 5 mg/kg, po measured upto 24 hrs by LC-MS/MS analysis. The note with it: in vivo.
Data set [13] is described as follows: MRT (0 to t) in Sprague-Dawley rat at 1 mg/kg, iv measured upto 24 hrs by LC-MS/MS analysis. The following applies: in vivo.
A short description of data set [14]: Tmax in Sprague-Dawley rat at 5 mg/kg, po measured upto 24 hrs by LC-MS/MS analysis. The following applies: in vivo.
The nature of data set [15]: Volume of distribution in Sprague-Dawley rat at 1 mg/kg, iv measured upto 24 hrs by LC-MS/MS analysis. The following applies: in vivo, read-out: Vz.
The nature of data set [16]: Drug distribution in Sprague-Dawley rat kidney at 5 mg/kg, po. The note with it: in vivo.
Data set [17] can be described thus: AUC (0 to t) in Sprague-Dawley rat at 1 mg/kg, iv measured upto 24 hrs by LC-MS/MS analysis. The note with it: in vivo.
Data set [18] in a line: AUC (0 to infinity) in Sprague-Dawley rat at 5 mg/kg, po measured upto 24 hrs by LC-MS/MS analysis. The note with it: in vivo.

In data set [1], `COc1cc(C(CC(=O)O)c2cccc3c2CCN(C(=O)c2ccc(OC(C)C)cc2Cl)C3)cc2nnn(C)c12` (stereo not drawn) showed a Vz of 46.52 L/kg. Besides, the MRT inf worked out at 0.44 h in data set [2] and 1.85 h in data set [8]. The mean residence time MRT last at 24 h in [3] worked out at 1.77 h; in [13], 0.39 h. Further, the values for the Cmax in data set [4] and in data set [12] were 1640 ng/mL and 186 ng/mL, respectively. Besides, the values for the AUC(0-t) at 24 h in data set [5] and in [17] were 265 ng·h/mL and 267 ng·h/mL, respectively. For the same compound, the figures for the half-life in data set [6] and in [9] were 1.36 h and 1.19 h, respectively. The CL/F in data set [7] is 383 mL/min/kg. The AUC(0-inf) was 268 ng·h/mL in data set [10] and 266 ng·h/mL in data set [18]. Moreover, the bioavailability in data set [11] was found to be 20%. Further, in [14], the Tmax was 0.29 h. The Vd in data set [15] was 6.49 L/kg. The Drug uptake entry in data set [16] is “Active”.

What is called MRT inf is the average time that molecules of a dose stay in the body. One may read the MRT last as the average time that molecules of a dose stay in the body. The Cmax is the peak of the concentration-time curve. For orientation: AUC(0-t) means the area under the concentration-time curve up to a stated or last time point. Low readings indicate low exposure, high ones high exposure. For orientation: half-life means the time in which the quantity being followed falls by half. For orientation: CL/F means clearance divided by bioavailability, as obtained after extravascular dosing. What is called AUC(0-inf) is the area under the concentration-time curve extrapolated to infinity. A low value points to low exposure. A word on the bioavailability: it is the share of a dose that reaches the circulation, judged against a reference dose that is usually intravenous. The Tmax is the time at which the peak concentration occurs.
